Laboratory results: patent publication US3974157A, “1-(Amino-alkyl)-2-aryl-cyclohexane alcohols and esters” (Pennwalt Corporation, priority 1975, dated 1976)
Structures can show the parent of a compound that is named as a salt.

Columns and labels:
Assay type in all cases: in vivo
[1] = phenylbenzoquinone (PBQ) writhing method (analgesia in mice, Sigmund et al); settings: for ED50: Mus musculus
Method: (§1) Analgesia was assessed in mice utilizing the hot plate method of Eddy and Leimbach, Journal Pharmacology Expt. Therap., 107, 385, 1953, and/or the phenylbenzoquinone writhing method described by Sigmund et al, Proc. Soc. Exptl. Biol. Med., 95, 729, 1957. The hot plate method is based upon the delay in reaction time, following administration of an active analgesic when animals are placed on a heated […] plate maintained at constant temperature. Thus, the numbers of mice showing elevation of response times over control values after administration of various doses of an unknown compound are used to determine the median effective dose (ED50), which is that dose affecting 50% of the animals. The writhing method is based upon inhibition by an analgesic of the response which occurs when the chemical agent phenylbenzoquinone is injected intraperitoneally. This response is characterized by a twisting or stretching of the body and is referred to as writhing. Following administration of an analgesic or unknown compound into mice, the numbers of animals not responding to the phenylbenzoquinone challenge by writhing are determined.

[2] = hot plate method (analgesia in mice, Eddy and Leimbach); settings: Mus musculus
Method: as §1

[3] = system: arrhythmia produced in dogs or cats by ouabain; assay: anti-arrhythmic activity: preventing or reversing the arrhythmia produced by ouabain; settings: for Arrhythmia Reversal Time: ouabain arrhythmia
Method: Anti-arrhythmic activity was determined by measuring the effect of the test compound in preventing or reversing the arrhythmia produced in dogs or cats by ouabain. In the test method, the animal was pretreated with 10 mg/kg (i.v.) of the test compound. The animal was then given 15 micrograms/kg of ouabain (i.v.) followed by doses of 10 micrograms/kg of ouabain at 15-minute intervals (the last dose of ouabain could be less than 10 micrograms/kg) until an arrhythmia was produced which lasted for 10 minutes. The animal was then given 5 mg/kg (i.v.) of test compound. If the arrhythmia was not reversed after 3 minutes, 1 mg/kg of xylocaine was given (i.v.) to reverse the arrhythmia. If the arrhythmia was reversed within 3 minutes by the test compound, the period of time during which the test compound effected reversal was measured (Arrythmia Reversal Time).

[4] = system: arrhythmia produced in dogs or cats by ouabain; assay: as above; settings: amount compound 4 mg/kg
[5] = mice, phenylbenzoquinone writhing, oral route
[6] = mice, phenylbenzoquinone writhing, subcutaneous route
[7] = po, mice, phenylbenzoquinone writhing, oral route, read-out: Analgesic Tests ED50 PBQ P.O.
[8] = ip, mice, intraperitoneal route, read-out: Analgesic Tests ED50 Hot Plate I.P.
[9] = mice, oral route, read-out: Analgesic Tests ED50 Hot Plate P.O.
[10] = sc, mice, phenylbenzoquinone writhing, subcutaneous route, read-out: Analgesic Tests ED50 PBQ S.C.
[11] = dogs or cats, amount compound 5 mg/kg
[12] = ouabain given i.v. until an arrhythmia lasting 10 minutes, after 10 mg/kg i.v. pretreatment with test compound

| SMILES | ED50 [1, 7] [mg/kg] | ED50 [1, 10] [mg/kg] | other results |
| --- | --- | --- | --- |
| CC(=O)OC1(C(C)CN(C)C)CCCCC1c1ccccc1 (single isomer, unassigned; (-)) [Example IX, (-)-1-(2-Dimethylamino-1-methylethyl)-2-phenylcyclohexyl acetate] |  |  | Analgesic Tests ED50 PBQ P.O. [1, 5]: 16 mg/kg; Analgesic Tests ED50 PBQ S.C. [1, 6]: 2.15 mg/kg |
| CCC(=O)OC1(C(C)CN(C)C)CCCCC1c1ccccc1 (single isomer, unassigned) [Example I (a), 1-(2-Dimethylamino-1-methylethyl)-2-phenylcyclohexyl propionate maleate (Major Isomer)] | 100 |  | ED50 [2, 8]: > 40 mg/kg; ED50 [2, 9]: > 100 mg/kg |
| CC(=O)OC1(C(C)CN(C)C)CCCCC1c1ccc(O)cc1.Cl (stereo not drawn) [XXXI, 1-(2-Dimethylamino-1-methylethyl)-2-(p-hydroxyphenyl)cyclohexyl acetate hydrochloride] | > 100 | > 100 |  |
| CC(=O)OC1(C(C)N(C)C)CCCCC1c1ccccc1 (stereo not drawn) [XXVIII, 1-(1-Dimethylaminoethyl)-2-phenylcyclohexyl acetate cyclohexylsulfamate] | > 30 | > 10 |  |
| CC(=O)OC1(C(C)CN2CCCCC2)CCCCC1c1ccccc1.Cl (stereo not drawn) [XII, 1-(1-Methyl-2-piperidinoethyl)-2-phenylcyclohexyl acetate hydrochloride] | ~60 | ~30 |  |
| COc1ccc(C2CCCCC2(O)C(C)CN(C)C)cc1.Cl (stereo not drawn) [Example XVII, 1-(2-Dimethylamino-1-methylethyl)-2-(p-methoxyphenyl)-cyclohexanol hydrochloride] | > 100 | > 30 | Arrhythmia Reversal Time [3, 11]: 30 min; Amount Ouabain [3, 12]: 80 µg/kg |
| CNC(C)C1(O)CCCCC1c1ccccc1.Cl (stereo not drawn) [XXIV, 1-(1-Methylaminoethyl)-2-phenylcyclohexanol hydrochloride] | > 100 | > 30 | prevention of arrhythmia by pretreatment ([3]; dogs or cats, 10 mg/kg pretreatment, then ouabain): prevented arrhythmia; Amount Ouabain [3, 12]: 140 µg/kg |
| COc1ccc(C2CCCCC2(OC(C)=O)C(C)CN(C)C)cc1 (stereo not drawn) [Example XXV, 1-(2-Dimethylamino-1-methylethyl)-2-(p-methoxyphenyl)-cyclohexylacetate hydrochloride] | > 100 | > 30 |  |
| CC(N)C1(O)CCCCC1c1ccccc1.Cl (stereo not drawn) [Example XXIII, 1-(1-Aminoethyl)-2-phenylcyclohexanol hydrochloride] | > 100 | > 30 | Arrhythmia Reversal Time [3, 11]: 5 min; Amount Ouabain [3, 12]: 95 µg/kg |
| CC(=O)OC1(C(C)CN(C)C)CCCCC1c1ccccc1 (single isomer, unassigned; (+)) [Example X, (+)-1-(2-Dimethylamino-1-methylethyl)-2-phenylcyclohexyl acetate] |  |  | Analgesic Tests ED50 PBQ P.O. [1, 5]: > 100 mg/kg; Analgesic Tests ED50 PBQ S.C. [1, 6]: 16.5 mg/kg |
| CC(=O)OC1(C(C)CN2CCN(c3ccccc3)CC2)CCCCC1c1ccccc1.Cl (stereo not drawn) [Example XXI, 1-(1-Methyl-2-[4-phenyl-1-piperazinyl]ethyl)-2-phenylcyclohexyl acetate hydrochloride] | 5.9 | > 100 |  |
| CNCC(C)C1(O)CCCCC1c1ccccc1.Cl (stereo not drawn) [Example XXVI, 1-(2-Methylamino-1-methylethyl)-2-phenylcyclohexanol hydrochloride] | > 30 | > 10 |  |
| CC(=O)OC1(C(C)CN2CCOCC2)CCCCC1c1ccccc1.Cl (stereo not drawn) [XIX, 1-(1-Methyl-2-morpholinoethyl)2-phenylcyclohexyl acetate hydrochloride] | 40 | 56.2 |  |
| C=CCN(CC=C)CC(C)C1(OC(C)=O)CCCCC1c1ccccc1 (stereo not drawn) [Example XVI, 1-(2-Diallylamino-1-methylethyl)-2-phenylcyclohexyl acetate] | > 30 | > 3 |  |
| CCN(CC)CC(=O)Nc1c(C)cccc1C [Lidocaine, reference compound] |  |  | Amount Ouabain ([3]; control (Lidocaine) line): 60 to 130 µg/kg; Arrhythmia Reversal Time ([3]; dogs or cats, control, amount compound 1-2 mg/kg): 1 to 3 min |
| COc1ccc(C2CCCCC2(O)C(C)CN(C)C)cc1OC (stereo not drawn) [XXXII, 2-(3,4-Dimethoxyphenyl)-1-(2-dimethylamino-1-methylethyl)cyclohexanol p-toluenesulfonate] | > 100 | ~30 |  |
| CC(=O)OC1(C(C)CN(C)C)CCCCC1c1ccccc1 (single isomer, unassigned) [Example I (c), 1-(2-Dimethylamino-1-methylethyl)-2-phenylcyclohexyl acetate maleate (Major Isomer)] |  |  | Analgesic Tests ED50 PBQ P.O. [1, 5]: 20 mg/kg; Analgesic Tests ED50 PBQ S.C. [1, 6]: 3.8 mg/kg; ED50 [2, 8]: 10 mg/kg; ED50 [2, 9]: 40 mg/kg; Arrhythmia Reversal Time [4]: 30 min; Amount Ouabain [3, 12]: 85 µg/kg |
| CC(N(C)C)C1(O)CCCCC1c1ccccc1.Cl (stereo not drawn) [Example XXVII, 1-(1-Dimethylaminoethyl)-2-phenylcyclohexanol hydrochloride] | > 100 | > 100 |  |
| CN1CC[C@]23c4c5ccc(O)c4O[C@H]2[C@@H](O)C=C[C@H]3[C@H]1C5 [Morphine, reference compound] |  |  | ED50 ([1]; po, read-out: Analgesic Tests ED50 PBQ P.O.): 2.6 mg/kg; ED50 ([1]; sc, read-out: Analgesic Tests ED50 PBQ S.C.): 0.5 mg/kg; ED50 ([2]; ip, read-out: Analgesic Tests ED50 Hot Plate I.P.): 1.8 mg/kg; ED50 ([2]; po, read-out: Analgesic Tests ED50 Hot Plate P.O.): 18 mg/kg |
| CN(C)CCC1(O)CCCCC1c1ccccc1 (stereo not drawn) [Example XIV, 1-(2-Dimethylaminoethyl)-2-phenylcyclohexanol] | > 100 | ~30 |  |
| C=CCN(C)CC(C)C1(OC(C)=O)CCCCC1c1ccccc1 (stereo not drawn) [XIII, 1-(2-Allylmethylamino-1-methylethyl)-2-phenylcyclohexyl acetate] | ~100 | ~30 |  |
| CC(CN1CCCC1)C1(O)CCCCC1c1ccccc1 (stereo not drawn) [Example III, 1-(1-Methyl-2-pyrrolidinoethyl)-2-phenylcyclohexanol] | > 100 | ~30 | Arrhythmia Reversal Time [3, 11]: 5 min; Amount Ouabain [3, 12]: 100 µg/kg |
| COc1ccc(C2CCCCC2(OC(C)=O)C(C)CN(C)C)cc1OC.Cl (stereo not drawn) [XXXIII, 2-(3,4-Dimethoxyphenyl)-1-(2-dimethylamino-1-methylethyl)cyclohexyl acetate hydrochloride] | > 100 | > 30 | Arrhythmia Reversal Time [3, 11]: 30 min; Amount Ouabain [3, 12]: 70 µg/kg |
| CC(CN(C)C)C1(O)CCCCC1c1ccccc1 (stereo not drawn) [Example XI, 1-(2-Dimethylamino-1-methylethyl)-2-phenylcyclohexanol-p-toluenesulfonate] | 56 |  | ED50 [2, 8]: 32 mg/kg; ED50 [2, 9]: 56 mg/kg; Arrhythmia Reversal Time [4]: 5 min; Amount Ouabain [3, 12]: 88 µg/kg |
| CC(CN(C)C)C1(O)CCCCC1c1ccc(O)cc1 (stereo not drawn) [Example XXX, 1-(2-Dimethylamino-1-methylethyl)-2-(p-hydroxyphenyl)-cyclohexanol] | > 100 | > 30 |  |
| CCOC(=O)C1(c2ccccc2)CCN(C)CC1 [Meperidine, reference compound] | 18 | 1.7 | ED50 [2, 8]: 5.8 mg/kg; ED50 [2, 9]: 81 mg/kg |
| CC(=O)OC1(CCN(C)C)CCCCC1c1ccccc1 (stereo not drawn) [Example XV, 1-(2-Dimethylaminoethyl)-2-phenylcyclohexyl acetate cyclohexylsulfamate] | > 30 | > 10 |  |
| CC(=O)OC1(C(C)CN2CCCC2)CCCCC1c1ccccc1.O=S(=O)(O)O (stereo not drawn) [Example XXII, 1-(1-Methyl-2-pyrrolidinoethyl)-2-phenylcyclohexyl acetate sulfate] | > 30 | ~10 |  |
